Reference: US8188277B2, “Aromatic compounds for suppressing the generation of collagen” (Otsuka Pharmaceutical Co., Ltd., priority 2004, dated 2012)
Where a name gives a salt, the structure may show the parent alone.

| SMILES | melting point |
| --- | --- |
| Cc1cc(N(C)CC(=O)N2CCN(Cc3ccoc3)CC2)ccc1Oc1ccc(NC(=O)c2ccc(C(F)(F)F)cc2)cn1 (as salt: hydrochloride) [compound 792] | 158.5 to 161 °C |
| Cc1cc(N(C)CC(=O)N2CCN(Cc3ccc4c(c3)OCO4)CC2)ccc1Oc1ccc(NC(=O)c2ccc(Cl)c(Cl)c2)cn1 (as salt: hydrochloride) [compound 1512] | 183 to 185 °C (dec.) |
| O=C(Nc1ccc(Oc2ccc(C(=O)N3CCOCC3)cc2)c(F)c1)c1ccc(Cl)c(Cl)c1 [Example No. 11] | 203 to 204 °C |
| O=C(Nc1ccc(Oc2ccc(CCC(=O)N3CCN(c4cccnc4)CC3)cc2)c(F)c1)c1ccc(Cl)c(Cl)c1 [compound 467] | 183 to 185 °C |
| Cc1cc(N(C)CC(=O)N2CCN(Cc3ccoc3)CC2)ccc1Oc1ccc(NC(=O)c2ccc(Cl)c(Cl)c2)cn1 [compound 718] | 116.5 to 118 °C |
| CCN(CC(=O)N1CCN(Cc2ccc3c(c2)OCO3)CC1)c1ccc(Oc2ccc(NC(=O)c3ccc(Cl)c(Cl)c3)cn2)c(F)c1 [compound 728] | 149 to 151 °C |
| CN(CC(=O)N1CCN(Cc2ccc3c(c2)OCO3)CC1)c1ccc(Oc2ccc(NC(=O)c3ccc(Cl)c(Cl)c3)cn2)c(F)c1 [compound 729] | 199 to 201 °C |
| CC(=O)N(CC(=O)N1CCN(Cc2ccccc2)CC1)c1ccc(Oc2ccc(NC(=O)c3ccc(C(F)(F)F)cc3)cn2)cc1 [compound 771] | 161 to 162 °C |
| CCN(CC(=O)N1CCN(Cc2ccc3c(c2)OCO3)CC1)c1ccc(Oc2ccc(NC(=O)c3ccc(C(F)(F)F)cc3)cn2)c(F)c1 [compound 775] | 170 to 172 °C |
| COc1cc(N(C)CC(=O)N2CCN(Cc3ccoc3)CC2)ccc1Oc1ccc(NC(=O)c2ccc(C(F)(F)F)cc2)cn1 [compound 785] | 160 to 164 °C |
| Br.CN(CC(=O)N1CCN(Cc2ccc3c(c2)OCO3)CC1)c1cc(F)c(Oc2ccc(C(=O)Nc3ccc(C(F)(F)F)cc3)cn2)cc1F [compound 1037, 6-(4-{[2-(4-Piperonylpiperazin-1-yl)-2-oxoethyl]methylamino}-2,5-difluorophenoxy)-N-(4-trifluoromethylphenyl)nicotinamide hydrobromide] | 224.5 to 226 °C |
| O=C(Nc1ccc(Oc2ccc(N3CCN(Cc4ccccc4)C3=O)cc2)nc1)c1ccc(C(F)(F)F)cc1 [compound 1181] | 203 to 204 °C |
| O=C(Nc1ccc(Oc2ccc(N3CCN(Cc4ccccc4)C3=O)cc2)nc1)c1ccc(Cl)c(Cl)c1 [compound 1182] | 186 to 187 °C |
| Cc1cc(N2CCCN(Cc3ccc4c(c3)OCO4)C2=O)ccc1Oc1ccc(NC(=O)c2ccc(Cl)c(Cl)c2)cn1 [compound 1184] | 122 to 124 °C |
| Cc1cc(N2CCN(Cc3ccc4c(c3)OCO4)C2=O)ccc1Oc1ccc(NC(=O)c2ccc(C(F)(F)F)cc2)cn1 [compound 1504, N-{6-[2-methyl-4-(2-oxo-3-piperonylimidazolidin-1-yl)phenoxy]pyridin-3-yl}-4-trifluoromethylbenzamide] | 188 to 189 °C |
| CCN(CC(=O)N1CCN(Cc2ccccc2)CC1)c1ccc(Oc2ccc(NC(=O)c3ccc(Cl)c(Cl)c3)cn2)c(C)c1 [compound 1514] | 102 to 105 °C |
| O=C(Nc1ccc(Oc2ccc(N3CCN(C(=O)c4ccc5c(c4)OCO5)CC3)cc2)cc1)c1ccc(Cl)c(Cl)c1 [compound 2053] | 116 to 118 °C |
| CC(=O)N(c1ccc(CCC(=O)N2CCN(Cc3ccc4c(c3)OCO4)CC2)cc1)c1ccc(NC(=O)c2ccc(Cl)c(Cl)c2)cn1 [compound 2099, N-[6-(Acetyl{4-[3-oxo-3-(4-piperonylpiperazin-1-yl)propyl]phenyl}amino)pyridin-3-yl]-3,4-dichlorobenzamide] | 150 to 165 °C |
| O=C(Nc1ccc(Oc2ccc(C3=CCN(CCCn4ccnc4)CC3)cc2)cc1)c1ccc(Cl)c(Cl)c1 [compound 2486, 3,4-Dichloro-N-(4-{4-[1-(3-imidazole-1-ylpropyl)-1,2,3,6-tetrahydropyridine-4-yl]phenoxy}phenyl)-benzamide] | 169 to 171 °C |
| O=C(Nc1ccc(Oc2ccc(N3CCN(C(=O)CN4CCOCC4)CC3)cc2)cc1)c1ccc(Cl)c(Cl)c1 [compound 2559] | 177 to 178 °C |
| CN(C(=O)CN1CCOCC1)C1CCN(c2ccc(Oc3ccc(NC(=O)c4ccc(Cl)c(Cl)c4)cc3)cc2)CC1 [compound 2572] | 157 to 160 °C |
| O=C(C1CCN(c2ccc(Oc3ccc(NS(=O)(=O)c4ccc(Cl)c(Cl)c4)cn3)cc2)CC1)N1CCN(Cc2ccccc2)CC1 [compound 2710, N-(6-{4-[4-(4-benzylpiperazine-1-carbonyl)piperidin-1-yl]phenoxy}pyridin-3-yl)-3,4-dichlorobenzenesulfonamide] | 185 to 189 °C |

The next lines start with the values.

| melting point | SMILES |
| --- | --- |
| 165 to 167 °C | CCN(CC(=O)N1CCN(Cc2ccccc2)CC1)c1ccc(Oc2ccc(NC(=O)c3ccc(C(F)(F)F)cc3)cn2)c(C)c1 (as salt: maleate) [compound 1513] |
| 189 to 192 °C | O=C(Nc1ccc(Oc2ccc(C(=O)N3CCOCC3)cc2)cc1)c1ccc(Cl)c(Cl)c1 [Example No. 10] |
| 222 to 224 °C | O=C(Nc1ccc(Oc2ccc(C(=O)N3CCN(c4ccccn4)CC3)cc2)nc1)c1ccc(C(F)(F)F)cc1 [compound 176] |
| 155 to 157 °C | CC(C)(C)OC(=O)N1CCN(C(=O)CCc2ccc(Oc3ccc(NC(=O)c4ccc(Cl)c(Cl)c4)cc3F)cc2)CC1 [compound 464] |
| 153 to 155 °C | O=C(Nc1ccc(Oc2ccc(CCC(=O)N3CCN(c4cccnc4)CC3)cc2)cc1)c1ccc(Cl)c(Cl)c1 [compound 466] |
| 216 to 217 °C | CC(=O)N(CC(=O)N1CCN(Cc2ccc3c(c2)OCO3)CC1)c1ccc(Oc2ccc(NC(=O)c3ccc(Cl)c(Cl)c3)cn2)c(C)c1 [compound 725] |
| 233 to 235 °C | CC(=O)N(CC(=O)N1CCN(Cc2ccc3c(c2)OCO3)CC1)c1ccc(Oc2ccc(NC(=O)c3ccc(Cl)c(Cl)c3)cn2)c(F)c1 [compound 730] |
| 178 to 180 °C | CCN(CC(=O)N1CCN(Cc2ccc3c(c2)OCO3)CC1)c1ccc(Oc2ccc(NC(=O)c3ccc(C(F)(F)F)cc3)cn2)cc1 [compound 774] |
| 220 to 221 °C | CN(CC(=O)N1CCN(Cc2ccc3c(c2)OCO3)CC1)c1ccc(Oc2ccc(NC(=O)c3ccc(C(F)(F)F)cc3)cn2)c(F)c1 [compound 776] |
| 174 to 176 °C | CCN(CC(=O)N1CCN(Cc2ccoc2)CC1)c1ccc(Oc2ccc(NC(=O)c3ccc(C(F)(F)F)cc3)cn2)c(OC)c1 [compound 784] |
| 165 to 166 °C | Cc1cc(N2CCCN(Cc3ccc4c(c3)OCO4)C2=O)ccc1Oc1ccc(NC(=O)c2ccc(C(F)(F)F)cc2)cn1 [compound 1183] |
| 155 to 157 °C | COc1ccc(CN2CCCN(c3ccc(Oc4ccc(NC(=O)c5ccc(C(F)(F)F)cc5)cn4)c(C)c3)C2=O)cc1OC [compound 1185] |
| 182 to 183.5 °C | Cc1cc(N2CCCN(CC(=O)N3CCN(Cc4ccc5c(c4)OCO5)CC3)C2=O)ccc1Oc1ccc(NC(=O)c2ccc(C(F)(F)F)cc2)cn1 [compound 1186] |
| 117 to 118 °C | COc1ccc(CN2CCCN(c3ccc(Oc4ccc(NC(=O)c5ccc(Cl)c(Cl)c5)cn4)c(C)c3)C2=O)cc1OC [compound 1187] |
| 160 to 161 °C | CCOC(=O)c1ccc(N2CCCN(c3ccc(Oc4ccc(NC(=O)c5ccc(C(F)(F)F)cc5)cn4)c(C)c3)C2=O)cc1 [compound 1188] |
| 110 to 111 °C | Cc1cc(N(C)CC(=O)N2CCN(Cc3ccccc3)CC2)ccc1Oc1ccc(NC(=O)c2ccc(C(F)(F)F)cc2)cn1 [compound 1515] |
| 111 to 113 °C | Cc1cc(N(C)CC(=O)N2CCN(Cc3ccccc3)CC2)ccc1Oc1ccc(NC(=O)c2ccc(Cl)c(Cl)c2)cn1 [compound 1516] |
| 185.6 to 187 °C | CN(CC(=O)N1CCN(Cc2ccc3c(c2)OCO3)CC1)c1ccc(Oc2ccc(NS(=O)(=O)c3ccc(Cl)c(Cl)c3)cn2)c(F)c1 [compound 1615, 3,4-dichloro-N-[6-(2-fluoro-4-{methyl[2-oxo-2-(4-piperonylpiperazin-1-yl)ethyl]amino}phenoxy)pyridin-3-yl]benzenesulfonamide] |
| 191 to 192 °C | O=C(Nc1ccc(Oc2ccc(N3CCN(S(=O)(=O)c4ccccc4)CC3)cc2)cc1)c1ccc(Cl)c(Cl)c1 [compound 2031, N-{4-[4-(4-benzenesulfonylpiperazin-1-yl)phenoxy]phenyl}-3,4-dichlorobenzamide] |
| 171 to 173 °C | O=C(Nc1ccc(Oc2ccc(N3CCN(C(=O)COc4ccccc4)CC3)cc2)cc1)c1ccc(Cl)c(Cl)c1 [compound 2052] |
| 133 to 135 °C | Cc1cc(N(C)CC(=O)N2CCN(C(=O)c3ccc4c(c3)OCO4)CC2)ccc1Oc1ccc(NC(=O)c2ccc(Cl)c(Cl)c2)cn1 [compound 2054] |
| 177 to 178 °C | O=C(CN1CCOCC1)c1ccc(Oc2ccc(NC(=O)c3ccc(Cl)c(Cl)c3)cc2F)cc1 [compound 2563] |
| 195 to 197 °C | O=C(Nc1ccc(Oc2ccc(C3=CCN(C(=O)CN4CCOCC4)CC3)cc2)cc1)c1ccc(Cl)c(Cl)c1 [compound 2565] |
| 142 to 145 °C | O=C(Nc1ccc(Oc2ccc(C(O)CN3CCOCC3)cc2)c(F)c1)c1ccc(Cl)c(Cl)c1 (stereo not drawn) [compound 2677] |
| 163 to 166 °C | CCN(CC(=O)N1CCN(Cc2ccc3c(c2)OCO3)CC1)c1ccc(Oc2ccc(NS(=O)(=O)c3ccc(Cl)c(Cl)c3)cn2)c(F)c1 [compound 2695, N-[6-(4-{[2-(4-piperonylpiperazin-1-yl)-2-oxoethyl]ethylamino}-2-fluorophenoxy)pyridin-3-yl]-3,4-dichlorobenzenesulfonamide] |
| 156 to 158 °C | Cc1cc(N2CCC(CC(=O)N3CCN(Cc4ccc5c(c4)OCO5)CC3)CC2)ccc1Oc1ccc(NS(=O)(=O)c2ccc(C(F)(F)F)cc2)cn1 [compound 2703, N-[6-(4-{4-[2-(4-piperonylpiperazin-1-yl)-2-oxoethyl]piperidin-1-yl}-2-methylphenoxy)pyridin-3-yl]-4-trifluoromethylbenzenesulfonamide] |
